In patent US10640506B2, “Cyclobutyl substituted pyrrolopyridine and pyrrolopyrimidines derivatives as JAK inhibitors” (Incyte Corporation, priority 2010, dated 2020) one finds IC50 data, which are given here for 17 molecules.

A word on the IC50: it is the concentration needed to halve the response being measured.

For one assay, the target named is T1, JAK2 (a.a. 828-1132) (Homo sapiens, UniProt O60674).
T1 construct: JAK2 (a.a. 828-1132); His tag (N)
Nature of the assay: In vitro JAK kinase assay (HTRF, phosphorylation of biotinylated peptide), JAK2. It is filed as biochemical. As for the experimental part: Compounds herein were tested for inhibitory activity of JAK targets according to the following in vitro assay described in Park et al., Analytical Biochemistry 1999, 269, 94-104. The catalytic domains of human JAK1 (a.a. 837-1142) and JAK2 (a.a. 828-1132) with an N-terminal His tag were expressed using baculovirus in insect cells and purified. The catalytic activity of JAK1 and JAK2 was assayed by measuring the phosphorylation of a biotinylated peptide. The phosphorylated peptide was detected by homogenous time resolved fluorescence (HTRF). […] Reactions were carried out at room temperature for 1 hour and then stopped with 20 μL 45 mM EDTA, 300 nM SA-APC, 6 nM Eu-Py20 in assay buffer (Perkin Elmer, Boston, Mass.). Binding to the Europium labeled antibody took place for 40 minutes and HTRF signal was measured on a Fusion plate reader (Perkin Elmer, Boston, Mass.). See Tables A-F for data related to compounds of the Examples (at 1 mM). Data is indicated as ranges, wherein “+” is less than 10 nM; “++” is 10 nM to 25 nM; “+++” is greater than 25 nM to 100 nM; and “++++” is greater than 100 nM. Greater than 25 nM to 100 nM specifies a range with a lower endpoint “at greater than 25 nM” and an upper endpoint at 100 nM.

Assay [1] has as its target human JAK1 (a.a. 837-1142) (Homo sapiens, UniProt P23458). The assay can be described thus: In vitro JAK kinase assay (HTRF, phosphorylation of biotinylated peptide), JAK1. In kind it is biochemical. As to the method:
Compounds herein were tested for inhibitory activity of JAK targets according to the following in vitro assay described in Park et al., Analytical Biochemistry 1999, 269, 94-104. The catalytic domains of human JAK1 (a.a. 837-1142) and JAK2 (a.a. 828-1132) with an N-terminal His tag were expressed using baculovirus in insect cells and purified. The catalytic activity of JAK1 and JAK2 was assayed by measuring the phosphorylation of a biotinylated peptide. The phosphorylated peptide was detected by homogenous time resolved fluorescence (HTRF). […] Reactions were carried out at room temperature for 1 hour and then stopped with 20 μL 45 mM EDTA, 300 nM SA-APC, 6 nM Eu-Py20 in assay buffer (Perkin Elmer, Boston, Mass.). Binding to the Europium labeled antibody took place for 40 minutes and HTRF signal was measured on a Fusion plate reader (Perkin Elmer, Boston, Mass.). […] Data is indicated as ranges, wherein “+” is less than 10 nM; “++” is 10 nM to 25 nM; “+++” is greater than 25 nM to 100 nM; and “++++” is greater than 100 nM. Greater than 25 nM to 100 nM specifies a range with a lower endpoint “at greater than 25 nM” and an upper endpoint at 100 nM.
On the technique in general: TR-FRET usually uses a lanthanide donor and a delayed reading to cut background.

Setting [2] is: read-out: JAK1 IC50 (nM) at 1 mM, Table E, 1 mM ATP.

Read-outs that look alike come from different tables or passages of the source.

Chain of human JAK1 (a.a. 837-1142) (P23458 849-1154): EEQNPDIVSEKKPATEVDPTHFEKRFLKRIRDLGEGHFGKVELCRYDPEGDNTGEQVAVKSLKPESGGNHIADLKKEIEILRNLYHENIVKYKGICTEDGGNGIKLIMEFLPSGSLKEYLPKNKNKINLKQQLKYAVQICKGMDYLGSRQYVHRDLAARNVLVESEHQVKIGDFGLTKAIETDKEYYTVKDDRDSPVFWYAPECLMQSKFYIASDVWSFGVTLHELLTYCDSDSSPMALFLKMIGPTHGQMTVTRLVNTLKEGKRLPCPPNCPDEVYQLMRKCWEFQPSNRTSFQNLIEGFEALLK
T1 sequence (O60674 828-1132): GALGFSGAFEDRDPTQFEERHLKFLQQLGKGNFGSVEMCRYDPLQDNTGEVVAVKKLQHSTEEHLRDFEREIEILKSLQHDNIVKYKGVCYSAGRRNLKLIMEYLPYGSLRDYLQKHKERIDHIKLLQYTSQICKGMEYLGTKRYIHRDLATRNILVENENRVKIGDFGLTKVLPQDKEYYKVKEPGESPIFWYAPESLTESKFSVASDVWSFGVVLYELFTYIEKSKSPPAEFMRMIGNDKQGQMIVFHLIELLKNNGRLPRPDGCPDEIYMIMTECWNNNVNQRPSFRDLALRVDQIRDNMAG

On to “3-[(4-{trans-3-(cyanomethyl)-3-[4-(7H-pyrrolo[2,3-d]pyrimidin-4-yl)-1H-pyrazol-1-yl]cyclobutyl}piperazin-1-yl)methyl]-5-[(dimethylamino)methyl]benzonitrile [Example 43]”, for which the IC50 at JAK2 (a.a. 828-1132) (read-out: JAK2 IC50 (nM) at 1 mM ATP, Table F) was > 100 nM; in assay [1] (read-out: JAK1 IC50 (nM) at 1 mM ATP, Table F), 25 to 100 nM.
On to `N#CC[C@]1(n2cc(-c3ncnc4[nH]ccc34)cn2)C[C@H](N2CCN(C(=O)N[C@H]3CCC[C@@H]3O)CC2)C1` (racemic) [Example 88, 4-{trans-3-(cyanomethyl)-3-[4-(7H-pyrrolo[2,3-d]pyrimidin-4-yl)-1H-pyrazol-1-yl]cyclobutyl}-N-(2-hydroxycyclopentyl)piperazine-1-carboxamide], for which the IC50 against JAK2 (a.a. 828-1132) (Table F, 1 mM ATP) is 25 to 100 nM; in assay [1] (Table F, 1 mM ATP), < 10 nM.
For `N#CC[C@]1(n2cc(-c3ncnc4[nH]ccc34)cn2)C[C@H](N2CCN(C(=O)N[C@H]3CCC[C@H]3O)CC2)C1` (single isomer, unassigned) [Example 89], in that order: 25 to 100 nM and < 10 nM.
`COCc1cc(OC2CCN([C@H]3C[C@@](CC#N)(n4cc(-c5ncnc6[nH]ccc56)cn4)C3)CC2)nc(C(F)(F)F)c1` (single isomer, unassigned) [Example 121, {cis-3-(4-{[4-(methoxymethyl)-6-(trifluoromethyl)pyridin-2-yl]oxy}piperidin-1-yl)-1-[4-(7H-pyrrolo[2,3-d]pyrimidin-4-yl)-1H-pyrazol-1-yl]cyclobutyl}acetonitrile]: the IC50 was > 100 nM against JAK2 (a.a. 828-1132) (Table F, 1 mM ATP) and 25 to 100 nM in assay [1] (Table F, 1 mM ATP).
On to `COCc1cc(OC2CCN([C@H]3C[C@](CC#N)(n4cc(-c5ncnc6[nH]ccc56)cn4)C3)CC2)nc(C(F)(F)F)c1` (single isomer, unassigned) [Example 122, {trans-3-(4-{[4-(methoxymethyl)-6-(trifluoromethyl)pyridin-2-yl]oxy}piperidin-1-yl)-1-[4-(7H-pyrrolo[2,3-d]pyrimidin-4-yl)-1H-pyrazol-1-yl]cyclobutyl}acetonitrile], for which the half-maximal inhibitory concentration (IC50) at JAK2 (a.a. 828-1132) (Table F, 1 mM ATP) is > 100 nM; in assay [1] (Table F, 1 mM ATP), < 10 nM.
In the case of `N#CC[C@]1(n2cc(-c3ncnc4[nH]ccc34)cn2)C[C@H](N2CCC(Oc3cc(CO)cc(C(F)(F)F)n3)CC2)C1` (single isomer, unassigned) [Example 123, {trans-3-(4-{[4-(hydroxymethyl)-6-(trifluoromethyl)pyridin-2-yl]oxy}piperidin-1-yl)-1-[4-(7H-pyrrolo[2,3-d]pyrimidin-4-yl)-1H-pyrazol-1-yl]cyclobutyl}acetonitrile], the IC50 against JAK2 (a.a. 828-1132) (Table F, 1 mM ATP) was > 100 nM; in assay [1] (Table F, 1 mM ATP) it was < 10 nM.
On to `N#CC[C@]1(n2cc(-c3ncnc4[nH]ccc34)cn2)C[C@@H](N2CCC(Oc3cc(CO)cc(C(F)(F)F)n3)CC2)C1` (single isomer, unassigned) [Example 124, {cis-3-(4-{[4-(hydroxymethyl)-6-(trifluoromethyl)pyridin-2-yl]oxy}piperidin-1-yl)-1-[4-(7H-pyrrolo[2,3-d]pyrimidin-4-yl)-1H-pyrazol-1-yl]cyclobutyl}acetonitrile], for which the IC50 against JAK2 (a.a. 828-1132) (Table F, 1 mM ATP) is > 100 nM; in assay [1] (Table F, 1 mM ATP), 25 to 100 nM.
Take `CC(C)(O)c1cc(OC2CCN([C@H]3C[C@](CC#N)(n4cc(-c5ncnc6[nH]ccc56)cn4)C3)CC2)nc(C(F)(F)F)c1` (single isomer, unassigned) [Example 125, {trans-3-(4-{[4-(1-hydroxy-1-methylethyl)-6-(trifluoromethyl)pyridin-2-yl]oxy}piperidin-1-yl)-1-[4-(7H-pyrrolo[2,3-d]pyrimidin-4-yl)-1H-pyrazol-1-yl]cyclobutyl}acetonitrile]: the IC50 against JAK2 (a.a. 828-1132) (Table F, 1 mM ATP) was 25 to 100 nM; in assay [1] (Table F, 1 mM ATP) it was < 10 nM.
Taken in the same sequence, the figures for `CC(C)(O)c1cc(OC2CCN([C@H]3C[C@@](CC#N)(n4cc(-c5ncnc6[nH]ccc56)cn4)C3)CC2)nc(C(F)(F)F)c1` (single isomer, unassigned) [Example 126, {cis-3-(4-{[4-(1-hydroxy-1-methylethyl)-6-(trifluoromethyl)pyridin-2-yl]oxy}piperidin-1-yl)-1-[4-(7H-pyrrolo[2,3-d]pyrimidin-4-yl)-1H-pyrazol-1-yl]cyclobutyl}acetonitrile] were > 100 nM and 10 to 25 nM.
With `N#CC[C@]1(n2cc(-c3ncnc4[nH]ccc34)cn2)C[C@@H](N2CCC(Oc3cc(C#N)cc(C(F)(F)F)n3)CC2)C1` (single isomer, unassigned) [Example 133, 2-[(1-{cis-3-(cyanomethyl)-3-[4-(7H-pyrrolo[2,3-d]pyrimidin-4-yl)-1H-pyrazol-1-yl]cyclobutyl}piperidin-4-yl)oxy]-6-(trifluoromethyl)isonicotinonitrile], the IC50 is > 100 nM against JAK2 (a.a. 828-1132) (Table F, 1 mM ATP) and 25 to 100 nM in assay [1] (Table F, 1 mM ATP).
Taken in the same sequence, the figures for `N#CC[C@]1(n2cc(-c3ncnc4[nH]ccc34)cn2)C[C@H](N2CCC(Oc3cc(C#N)cc(C(F)(F)F)n3)CC2)C1` (single isomer, unassigned) [Example 134, 2-1(1-{trans-3-(cyanomethyl)-3-[4-(7H-pyrrolo[2,3-d]pyrimidin-4-yl)-1H-pyrazol-1-yl]cyclobutyl}piperidin-4-yl)oxyl-6-(trifluoromethyl)isonicotinonitrile] were > 100 nM and < 10 nM.
Consider `N#CC[C@]1(n2cc(-c3ncnc4[nH]ccc34)cn2)C[C@@H](N2CCC(Oc3cc(CN4CCOC4=O)cc(C(F)(F)F)n3)CC2)C1` (single isomer, unassigned) [Example 165, peak 1, {cis-3-(4-{[4-[(2-oxo-1,3-oxazolidin-3-yl)methyl]-6-(trifluoromethyl)pyridin-2-yl]oxy}piperidin-1-yl)-1-[4-(7H-pyrrolo[2,3-d]pyrimidin-4-yl)-1H-pyrazol-1-yl]cyclobutyl}acetonitrile], for which the IC50 on JAK2 (a.a. 828-1132) (Table F, 1 mM ATP) was > 100 nM; in assay [1] (Table F, 1 mM ATP), 25 to 100 nM.
Regarding `N#CC[C@]1(n2cc(-c3ncnc4[nH]ccc34)cn2)C[C@H](N2CCC(Oc3cc(CN4CCOC4=O)cc(C(F)(F)F)n3)CC2)C1` (single isomer, unassigned) [Example 165, peak 2, {trans-3-(4-{[4-[(2-oxo-1,3-oxazolidin-3-yl)methyl]-6-(trifluoromethyl)pyridin-2-yl]oxy}piperidin-1-yl)-1-[4-(7H-pyrrolo[2,3-d]pyrimidin-4-yl)-1H-pyrazol-1-yl]cyclobutyl}acetonitrile], the IC50 against JAK2 (a.a. 828-1132) (Table F, 1 mM ATP) is 25 to 100 nM; in assay [1] (Table F, 1 mM ATP) it was < 10 nM.
Take `CN(C)Cc1cc(F)cc(OC2CCN(C3CC(CC#N)(n4cc(-c5ncnc6[nH]ccc56)cn4)C3)CC2)c1` (single isomer, unassigned; isomer 1) [Example 40, isomer 1, {cis-3-(4-{3-[(dimethylamino)methyl]-5-fluorophenoxy}piperidin-1-yl)-1-[4-(7H-pyrrolo[2,3-d]pyrimidin-4-yl)-1H-pyrazol-1-yl]cyclobutyl}acetonitrile]: the IC50 at JAK2 (a.a. 828-1132) (Table E, 1 mM ATP, listed as 40, isomer 1, read-out: JAK2 IC50 (nM) +) was 10 to 25 nM; in assay [1] (setting [2]) it was < 10 nM.
As for `C[C@H]1CCCN1Cc1cc(F)cc(OC2CCN(C3CC(CC#N)(n4cc(-c5ncnc6[nH]ccc56)cn4)C3)CC2)c1` (single isomer, unassigned; isomer 1) [Example 41, isomer 1], the 50% inhibitory concentration (IC50) on JAK2 (a.a. 828-1132) (Table E, 1 mM ATP, listed as 41, isomer 1, read-out: JAK2 IC50 (nM) +) was 10 to 25 nM; in assay [1] (setting [2]) it was < 10 nM.
Take `CN(C)Cc1cc(F)cc(OC2CCN(C3CC(CC#N)(n4cc(-c5ncnc6[nH]ccc56)cn4)C3)CC2)c1` (single isomer, unassigned; isomer 2) [Example 40, isomer 2, {trans-3-(4-{3-[(dimethylamino)methyl]-5-fluorophenoxy}piperidin-1-yl)-1-[4-(7H-pyrrolo[2,3-d]pyrimidin-4-yl)-1H-pyrazol-1-yl]cyclobutyl}acetonitrile]: the concentration for half-maximal inhibition (IC50) on JAK2 (a.a. 828-1132) (Table E, 1 mM ATP, listed as 40, isomer 2, read-out: JAK2 IC50 (nM) +) is < 10 nM; in assay [1] (setting [2]), < 10 nM.
As to `CCS(=O)(=O)N1CCN([C@H]2C[C@](CC#N)(n3cc(-c4ncnc5[nH]ccc45)cn3)C2)CC1` [Example 35, {trans-3-[4-(ethylsulfonyl)piperazin-1-yl]-1-[4-(7H-pyrrolo[2,3-d]pyrimidin-4-yl)-1H-pyrazol-1-yl]cyclobutyl}acetonitrile], the IC50 at JAK2 (a.a. 828-1132) (Table B, 1 mM ATP, read-out: JAK2 IC50) was < 10 nM.
